Measurements: US10543213B2, “Treatment of relapsed and/or refractory solid tumors and non-hodgkin's lymphomas” (Celgene Quanticel Research, Inc., priority 2016, dated 2020)
Where two headings read alike, the source gives them in different places. Each block holds one compound with its values, some of them ahead of it.

Legend:
[1] = Hemodynamic and ECG parameters in anesthetized guinea pigs; type: in vivo, male Dunkin Hartley guinea pigs
Source text: Animals were monitored throughout the experiment.

LU2514 SCLC PDX = type: in vivo
Experimental: Tumor growth inhibition analysis was performed on Day 28 post treatment, the last day of dosing.

[2] = Pharmacokinetics following IV and oral administration, rats; type: in vivo, Sprague Dawley rats; conditions: IV dosing
MS-1 hMCC xenograft = type: in vivo; conditions: 5 mg/kg 5 on/2 off; Day 36 minus Day -3
[3] = dog, in vivo
[4] = system: Salmonella typhimurium TA98 and TA100 strains; test: Bacterial reverse mutation assay; type: cell-based; conditions: up to 500 μg/mL, presence and absence of S9
NCI-H1417 SCLC xenograft = test: Efficacy in NCI-H1417 SCLC xenograft model; type: in vivo, female athymic nude mice
CYP2C9 = CYP2C9 (Homo sapiens (Human), UniProt P11712); test: CYP inhibition in pooled human liver microsomes, CYP2C9; type: in vitro ADME; conditions: up to 50 μM
Chain of CYP2C9 (P11712 whole entry): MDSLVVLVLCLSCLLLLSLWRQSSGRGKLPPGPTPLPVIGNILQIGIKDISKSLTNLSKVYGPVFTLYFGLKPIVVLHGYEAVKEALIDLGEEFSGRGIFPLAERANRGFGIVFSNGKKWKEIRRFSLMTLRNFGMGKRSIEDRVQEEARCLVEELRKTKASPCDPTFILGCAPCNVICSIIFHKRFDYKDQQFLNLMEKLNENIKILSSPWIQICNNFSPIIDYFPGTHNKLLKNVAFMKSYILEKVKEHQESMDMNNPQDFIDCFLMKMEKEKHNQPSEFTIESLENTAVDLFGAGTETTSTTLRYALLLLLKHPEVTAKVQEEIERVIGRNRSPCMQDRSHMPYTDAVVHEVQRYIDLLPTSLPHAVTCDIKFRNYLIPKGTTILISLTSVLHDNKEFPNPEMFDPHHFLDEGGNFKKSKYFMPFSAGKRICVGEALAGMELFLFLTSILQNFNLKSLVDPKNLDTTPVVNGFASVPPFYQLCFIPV

LXFS 1129 SCLC PDX = test: Efficacy in LXFS 1129 SCLC PDX model; type: in vivo, female immunodeficient NMRI-Foxn1nu mice; conditions: 1.5 and 5 mg base/kg QD for 30 days
[5] = Exploratory toxicity study in dogs; type: in vivo, Beagle dogs
CYP2D6 = CYP2D6 (Homo sapiens (Human), UniProt P10635); test: CYP inhibition in pooled human liver microsomes, CYP2D6; type: in vitro ADME; conditions: up to 50 μM
Chain of CYP2D6 (P10635 whole entry): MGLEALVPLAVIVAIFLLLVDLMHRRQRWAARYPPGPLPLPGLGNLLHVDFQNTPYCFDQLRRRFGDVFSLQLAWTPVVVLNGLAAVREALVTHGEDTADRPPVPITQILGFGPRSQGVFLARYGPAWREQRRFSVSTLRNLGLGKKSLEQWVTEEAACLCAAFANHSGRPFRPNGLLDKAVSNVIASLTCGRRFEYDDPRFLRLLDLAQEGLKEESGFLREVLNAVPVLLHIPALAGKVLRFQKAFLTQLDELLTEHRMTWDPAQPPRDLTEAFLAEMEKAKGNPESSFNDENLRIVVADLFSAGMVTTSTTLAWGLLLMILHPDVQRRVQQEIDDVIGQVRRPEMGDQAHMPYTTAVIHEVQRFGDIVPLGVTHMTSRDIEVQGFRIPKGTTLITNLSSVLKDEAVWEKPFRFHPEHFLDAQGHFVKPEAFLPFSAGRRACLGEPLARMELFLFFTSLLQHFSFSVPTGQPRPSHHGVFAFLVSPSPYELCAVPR

MKL-1 hMCC xenograft = type: in vivo; conditions: 5 mg/kg 5 on/2 off
[6] = Metabolism in cryopreserved primary hepatocytes; type: in vitro ADME; conditions: hepatocytes of mouse, rat, dog, monkey, human
LXFS 573 SCLC PDX [7] = test: Efficacy in LXFS 573 SCLC PDX model; type: in vivo, female immunodeficient NMRI-Foxn1nu mice; conditions: 5, 7.5, 10 mg/kg oral
[8] = Pharmacokinetics following IV and oral administration, mice; type: in vivo, CD-1 mice; conditions: Mouse, Female, single oral dose 10 mg base/kg
[9] = 4-week oral gavage pivotal toxicity study with 4-week recovery in dogs; type: in vivo, Beagle dogs
[10] = biological target: MDR1(human P-gp)-MDCK cells (Homo sapiens (Human), UniProt P08183); test: Permeability in MDR1-MDCK cells; type: in vitro ADME
Chain of MDR1(human P-gp)-MDCK cells (P08183 whole entry): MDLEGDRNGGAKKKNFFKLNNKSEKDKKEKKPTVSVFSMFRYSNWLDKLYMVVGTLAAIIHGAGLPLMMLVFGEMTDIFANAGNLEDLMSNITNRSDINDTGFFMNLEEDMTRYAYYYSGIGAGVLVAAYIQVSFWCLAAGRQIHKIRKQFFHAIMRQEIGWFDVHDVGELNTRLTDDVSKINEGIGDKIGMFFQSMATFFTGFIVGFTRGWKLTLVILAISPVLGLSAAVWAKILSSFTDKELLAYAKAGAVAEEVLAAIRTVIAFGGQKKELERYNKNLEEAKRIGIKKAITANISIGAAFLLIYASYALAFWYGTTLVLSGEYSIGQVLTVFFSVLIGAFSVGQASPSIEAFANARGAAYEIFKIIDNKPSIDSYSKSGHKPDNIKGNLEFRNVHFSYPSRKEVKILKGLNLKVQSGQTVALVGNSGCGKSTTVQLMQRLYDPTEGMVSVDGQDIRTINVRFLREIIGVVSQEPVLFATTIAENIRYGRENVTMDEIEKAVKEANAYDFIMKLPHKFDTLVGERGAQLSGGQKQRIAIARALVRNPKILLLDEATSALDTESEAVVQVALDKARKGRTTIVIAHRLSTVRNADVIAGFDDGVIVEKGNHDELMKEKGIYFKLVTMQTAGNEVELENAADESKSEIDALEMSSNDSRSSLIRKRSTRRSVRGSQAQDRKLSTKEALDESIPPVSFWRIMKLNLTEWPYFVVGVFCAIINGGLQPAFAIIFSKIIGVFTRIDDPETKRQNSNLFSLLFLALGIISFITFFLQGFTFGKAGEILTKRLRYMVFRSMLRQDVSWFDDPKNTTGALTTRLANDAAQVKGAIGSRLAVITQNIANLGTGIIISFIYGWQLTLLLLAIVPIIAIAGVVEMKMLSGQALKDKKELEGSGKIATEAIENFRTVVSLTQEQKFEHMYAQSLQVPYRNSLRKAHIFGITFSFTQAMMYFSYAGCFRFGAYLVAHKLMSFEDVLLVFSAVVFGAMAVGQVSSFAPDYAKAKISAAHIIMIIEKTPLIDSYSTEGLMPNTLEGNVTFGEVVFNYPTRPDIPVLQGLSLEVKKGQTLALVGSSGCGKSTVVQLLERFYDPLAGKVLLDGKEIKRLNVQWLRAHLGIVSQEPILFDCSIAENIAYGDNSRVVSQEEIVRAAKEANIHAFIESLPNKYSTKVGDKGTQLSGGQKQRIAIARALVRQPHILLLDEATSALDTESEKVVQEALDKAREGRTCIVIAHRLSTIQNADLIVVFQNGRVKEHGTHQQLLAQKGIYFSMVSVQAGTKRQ

P-gp (human MDR1) = P-gp (human MDR1) (Homo sapiens (Human), UniProt P08183); test: Permeability in MDR1-MDCK cells; type: in vitro ADME; conditions: dog
Chain of P-gp (human MDR1) (P08183 whole entry): as above

[11] = 4-week toxicity study (no recovery period) in dogs; conditions: Q2W administration, not determined
[12] = system: recombinant human CYP enzymes; test: CYP reaction phenotyping with recombinant human CYP enzymes; type: in vitro ADME
Source text: The role of non-CYP enzymes in the metabolism of Compound A is yet to be ascertained.

[13] = Pharmacokinetics across species (statements covering several species); type: in vivo, mice, rats, dogs, and monkeys; conditions: plasma; for half-life: intravenous; for bioavailability: po
Experimental: Disparate half-lives were noted between rodents and non-rodents with values ranging from either 2 to 4 hours in rodents or from 12 to 20 hours in non-rodents.

[14] = 4-week toxicity study with 4-week recovery in mice; conditions: 25 mg base/kg/dose QOD×3 weekly, males
LXFS 615 SCLC PDX = test: Efficacy in LXFS 615 SCLC PDX model; type: in vivo, female immunodeficient NMRI-Foxn1nu mice; conditions: 5 mg base/kg oral for 30 days
[15] = Exploratory toxicity study in mice; type: in vivo, CD-1 mice; conditions: for reduction in neutrophil counts vs concurrent controls: 60 mg/kg/dose QOD
Source text: Additional animals were included for TK evaluation.

[16] = Excretion in bile duct cannulated rats; type: in vivo; conditions: IV, 24-hour period post dosing
LXFS 573 SCLC PDX [17] = system: LXFS 573 SCLC PDX
human LSD-1 = human LSD-1 (Homo sapiens (Human), UniProt O60341); test: In vitro enzyme inhibition assay LSD-1 (TR-FRET); type: biochemical; conditions: H3K4me1-biotin labeled peptide
Source text: This assay determines the ability of a test compound to inhibit LSD-1 demethylase activity.
The enzymatic assay of LSD-1 activity is based on Time Resolved-Fluorescence Resonance Energy Transfer (TR-FRET) detection.

[18] = after escalating IV doses up to 20 mg base/kg
[19] = CD-1, Sprague Dawley, mouse, rat, rodents
[20] = Etoposide at 24 mg/kg/day SC days 1-3 + Vehicle
[21] = etoposide monotherapy 24 mg/kg SC

Structure (SMILES): COc1ccc(-c2c(-c3ccc(C#N)c(F)c3)nc(N3CCC(N)CC3)n(C)c2=O)cc1F [Compound A, 4-[2-(4-amino-piperidin-1-yl)-5-(3-fluoro-4-methoxy-phenyl)-1-methyl-6-oxo-1,6-dihydro-pyrimidin-4-yl]-2-fluoro-benzonitrile]
- maximum increase of QTcB interval vs time-matched vehicle ([1]; 10 mg base/kg IV): approximately 9%
- maximum increase of QTcB interval vs time-matched vehicle ([1]; 15 mg base/kg IV): ~13%
- maximum increase of QTcB interval vs time-matched vehicle ([1]; 20 mg base/kg IV): ~16%
- decrease in HR, maximum suppression as compared with vehicle ([1]; 20 mg base/kg IV, 9 minutes into the 10-minute infusion): 19%
- effect in MAP or its components ([1]; 5-20 mg base/kg IV vs time-matched vehicle): No notable effect
- NOAEL for hemodynamic and ECG endpoints ([1]; IV administration): 10 mg base/kg
- QTcB interval increase at the end of the monitoring period [1, 18]: 10%
- heart rate decrease at the end of the monitoring period [1, 18]: 18%
- tolerability (LU2514 SCLC PDX; both LU2514 studies): well tolerated
- mean body weight losses (LU2514 SCLC PDX; mouse, in vivo): < 10%
- systemic clearance [2]: greater than liver blood flow
- Median Tumor Volumes Diff (MS-1 hMCC xenograft): 80 mm^3
- accumulation after multiple doses [3]: No accumulation
- AUC0-96 ([3]; female, Beagle, po, 0.25 mg/kg): 343 ng·h/mL
- Cmax ([3]; female, Beagle, po, 0.25 mg/kg): 12.1 ng/mL
- AUC0-96 ([3]; female, Beagle, po, 0.5 mg/kg): 729 ng·h/mL
- mutagenicity [4]: negative
- mean body weight gain by the end of study (NCI-H1417 SCLC xenograft; 2.5 mg base/kg PO QDx65): 1%
- mean body weight gain by the end of study (NCI-H1417 SCLC xenograft; 5 mg base/kg PO QDx65): 7.5%
- tumors from treated animals regressed in net volume (NCI-H1417 SCLC xenograft; 2.5 and 5 mg base/kg groups together, end of study): 14 out of 15
- tolerability (NCI-H1417 SCLC xenograft; 2.5 or 5 mg base/kg PO QDx65): well tolerated
- direct inhibitory effect (CYP2C9): little to no direct inhibitory effect
- mean body weight losses (LXFS 1129 SCLC PDX): < 6%
- treatment-related effects ([5]; 0.25 mg/kg/dose QOD): generally no Compound A-related effects
- accumulation after repeat dosing ([5]; QOD schedule): no accumulation
- direct inhibitory effect (CYP2D6): little to no direct inhibitory effect
- Median Tumor Volumes Day 15 (MKL-1 hMCC xenograft): 880 mm^3
- metabolic stability [6]: greater in rat and dog followed by human and monkeys while being least stable in mouse hepatocytes
- mean body weight losses (LXFS 573 SCLC PDX [7]): ≤ 3%
- AUClast [8]: 2007 ng·h/mL
- cause of moribund condition ([9]; 0.375 to 1.5 mg base/kg weekly): gastric mucosal ulceration and/or acute inflammation
- accumulation after multiple dosing ([9]; dog, in vivo): No accumulation
- platelet count ([9]; dog, in vivo): mildly to markedly decreased
- AUC0-168 ([9]; female, Beagle, dog, in vivo, po): 435 ng·h/mL
- Cmax ([9]; male, Beagle, dog, in vivo, po): 17.2 ng/mL
- HNSTD and NOAEL for the QW or BIW dose schedule ([9]; not determined): < 0.375 mg base/kg/dose
- moribund euthanasia ([9]; weekly oral, 1 male 0.375 QW, 2 males and 1 female 0.75, 3 males and 4 females 1.5 mg base/kg/dose, Days 13 to 23): 11 animals
- P-gp substrate status [10]: P-gp substrate
- Papp (P-gp (human MDR1); MDCK-MDR1, A→B direction): 0.5 ×10⁻⁶ cm/s
- Papp (P-gp (human MDR1); MDCK-MDR1, B→A direction): 16.5 ×10⁻⁶ cm/s
- NOAEL [11]: < 0.5 mg base/kg/dose
- CYP enzyme responsible for oxidative metabolism [12]: CYP3A4 appears to be predominantly responsible
- half-life ([13]; Beagle, Cynomolgus, dog, monkey, non-rodents): 12 to 20 h
- bioavailability ([13]; Beagle, dog, cynomolgus monkey, dogs and monkeys): 82 to 100%
- Tmax ([13]; CD-1, Sprague Dawley, Beagle, mouse, rat, dog, cynomolgus monkey, oral dosing, mice, rats, dogs, and monkeys, read-out: median time to peak plasma concentration (tmax)): 0.5 to 6 h
- half-life [13, 19]: 2 to 4 h
- bioavailability [13, 19]: 28 to 74%
- mean steady state AUC0-24 [14]: 17,800 ng·hr/mL
- mean body weight losses (LXFS 615 SCLC PDX): < 1%
- increase in platelets on Day 8 compared with the end of the first dosing period ([15]; 10 mg/kg/day 5 days on/2 days off): > 2 fold
- reduction in neutrophil counts vs concurrent controls ([15]; females): 66%
- reduction in neutrophil counts vs concurrent controls ([15]; males): 83%
- greatest reduction in neutrophil counts vs concurrent controls and pre-study values ([15]; 5 days on/2 days off schedule): approximately 90%
- circulating platelets ([15]; all dose levels, end of the study): reduced
- accumulation upon repeat dosing ([15]; mice): no accumulation
- dose excreted intact (urine and bile) [16]: 26.3 % of the dose
- dose excreted intact in urine [16]: 8.5 % of dose

Structure (SMILES): COc1cc([C@@H]2c3cc4c(cc3[C@@H](O[C@@H]3O[C@@H]5CO[C@@H](C)O[C@H]5[C@H](O)[C@H]3O)[C@H]3COC(=O)[C@H]23)OCO4)cc(OC)c1O [Etoposide, etoposide, reference compound]
- % TGD (LXFS 573 SCLC PDX [17]; [20]): 50%
- T-C (LXFS 573 SCLC PDX [17]; [20]): 21 days
- median TTE (LXFS 573 SCLC PDX [17]; [20]): 63 days
- SS number of study survivors (LXFS 573 SCLC PDX [17]; Etoposide at 24 mg/kg/day SC days 1-3 + Vehicle, Day 133, N=8): 0 (na)
- % TGD (LXFS 573 SCLC PDX [17]; [21]): 50%
- TGD (LXFS 573 SCLC PDX [17]; [21]): 21 days
- median TTE (LXFS 573 SCLC PDX [17]; [21]): 63 days

Structure (SMILES): CCn1c(N2CCC(N)CC2)nc(-c2ccc(C#N)c(F)c2)cc1=O [Example 13, 4-[2-(4-amino-piperidin-1-yl)-1-ethyl-6-oxo-1,6-dihydro-pyrimidin-4-yl]-2-fluoro-benzonitrile]
- IC50 (human LSD-1): 100 to 1000 nM

Structure (SMILES): N#Cc1ccc(-c2cc(=O)n(CCCO)c(N3CCC(N)CC3)n2)cc1F [Example 17, 4-[2-(4-amino-piperidin-1-yl)-1-(3-hydroxy-propyl)-6-oxo-1,6-dihydro-pyrimidin-4-yl]-2-fluoro-benzonitrile]
- IC50 (human LSD-1): 100 to 1000 nM

Structure (SMILES): Cn1c(N2CCC(N)CC2)nc(-c2ccc(C#N)c(F)c2)c(-c2ccc(C(=O)O)cc2)c1=O [Example 39, 4-[2-(4-aminopiperidyl)-6-(4-cyano-3-fluorophenyl)-3-methyl-4-oxo-3-hydropyrimidin-5-yl] benzoic acid]
- IC50 (human LSD-1): 100 to 1000 nM

Structure (SMILES): N#Cc1ccc(-c2cc(=O)n(CC3CC3)c(N3CCC(N)CC3)n2)cc1F [Example 109, 4-[2-(4-amino-piperidin-1-yl)-1-cyclopropylmethyl-6-oxo-1,6-dihydro-pyrimidin-4-yl]-2-fluoro-benzonitrile]
- IC50 (human LSD-1): 100 to 1000 nM

- IC50 (human LSD-1): 100 to 1000 nM
Structure (SMILES): Cn1c(N2CCC(N)CC2)nc(-c2ccncc2)c(-c2ccc3c(ccn3C)c2)c1=O [Example 116, 2-(4-amino-piperidin-1-yl)-3-methyl-5-(1-methyl-1H-indol-5-yl)-6-pyridin-4-yl-3H-pyrimidin-4-one]
